Experimental data reported in PMC11562385 (RSC Chemical Biology, 2024).
Read-outs that look alike come from different tables or passages of the source. Blank lines part the entries; values can stand above or below the molecule they belong to. Square brackets hold non-standard residues; d marks the D form. Peptide text beside a SMILES is read from it. * marks the point of attachment. Methacryloyl = C=C(C)C(=O)*; Dab = NCC[C@H](N)C(=O)O; Dap = NC[C@H](N)C(=O)O; Acryloyl = C=CC(=O)*

Legend:
PD1:PDL1 interaction = molecular target: T1, PD1:PDL1 interaction (Homo sapiens, UniProt Q15116); assay: PD1/PDL1 immunoblocking ELISA (BPS Bioscience kit cat # 72005); type: binding
T1 construct: purchased BPS Bioscience 72005
T1 sequence (Q15116 25-167 limits assumed): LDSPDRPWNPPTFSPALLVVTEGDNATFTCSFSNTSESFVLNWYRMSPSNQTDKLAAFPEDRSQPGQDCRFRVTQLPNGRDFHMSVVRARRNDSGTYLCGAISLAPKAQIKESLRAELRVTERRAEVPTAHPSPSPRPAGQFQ
Description: Original loops with Phe/Trp and their Gly-derived analogs. Experimental EC50 values from inhibitory dose–response curves. Error bars indicate the mean ± SD, (n = 3). […]
SDS -Pages, buffers, and stain were purchased from Fisher
8. Immunoblocking ELISA Assay
Peptide inhibitor stock solutions were prepared in the concentration range of approximately 1-5 mM in DMSO. […]
plate was then washed and blocked with blocking buffer for 1 h at room temperature. Inhibitor solutions (ranging from 0.01 to 100 μM) and a blank solution (DMSO/PBS buffer) were added to designated wells. To initiate the […]
inhibitor solutions. After a 2 h incubation at room temperature, the plate was washed and blocked again for 10 min. Streptavidin-HRP (diluted at 1 : 1000) was added and incubated for 1 h at room temperature with gentle shaking. The plate was washed and blocked once more for 10 min. ELISA ECL substrate was added, and the resulting chemoluminescence was immediately measured in a luminometer (FLUOstar OPTIMA, BMG Labtech).
The luminescence value of the blank was subtracted from all readings according to the manufacturer's

[1] = Variable-temperature CD melting curves (CD-melts at 228±2 nm and 202±2 nm), individual and global two-state fits; type: physicochemical
Description: Recently, our laboratory brought forward a novel synthetic technology for the synthesis of acyclic β-hairpins with long loops. […] To compare hairpins’ stability, both regular (R) and bulged (B) scaffolds were crafted around a flexible 10-residue model loop (G4K2G4) and analyzed by CD (circular dichroism) spectroscopy (Fig. 2(A), see ESI, ^† Table S5). The […] structure of these model scaffolds 1avs.2a in solution were recorded in the far-UV CD spectra. […] The CD-exciton intensity was therefore used as a global probe to determine the %-folding of ADAPTins and to obtain melting curves corresponding to the hairpin fraying mechanism upon a gradual increase of temperature (0 to 95 °C).[68] […] In addition, NMR (nuclear magnetic resonance) chemical shifts were measured to determine variations in backbone […] structures (Fig. 2(B)). Secondary chemical shift deviations (CSDs) were calculated against random coil values[69] for both ADAPTin scaffolds 1vs.2 to verify that the hairpins were folded and if any variation of conformational rigidity exist within the loops. […]
Mass Spectrometer coupled to a Vanquish™ Neo UHPLC System (Thermo Scientific™). Peptide solutions for circular dichroism (CD) were prepared within a concentration range of 15-120 µM in a phosphate buffer (15 mM, […]
measured accurately using a JASCO V-670 spectrophotometer relied on the combined molar absorptivity of Trp (ε280 = 5580 M-1 .cm-1 per Trp) and Tyr (ε280 = 1280 M-1 .cm-1 per Tyr) to determine each sample's concentration.
CD spectra were recorded using a JASCO J-810 Spectropolarimeter equipped with a temperature controller module JASCO PFD-425S. Raw CD melting curves were processed in SpectraGryph, and fitting was performed in OriginPro 9.0 (Originlab Corporation, U.S.A.). NMR samples were prepared by reconstituting freeze -dried peptides (~ 1-5 mg) in mixture of water and DMSO -d6 (90:10 v/v) using 2,2-dimethyl-2-silapentane-5-sulfonate (DSS) as internal standard for chemical shifts (0 ppm), and spectra were recorded at 291 K (18 °C) unless otherwise stated. Chemical shifts ( δ) are reported in ppm. Samples for NMR experiments were prepared in a range of 3-10 mM of peptide in solution unless otherwise noted.

[2] = ELISA, mean of three independent experiments, read-out: EC50 Value
[3] = xlsx sheet of the peptide, individual fit of CD-melt

EC50 (PD1:PDL1 interaction; [2]): 5220 nM
Molecule: C=CC(=O)NCC[C@H](NC(=O)[C@H](CC(=O)O)NC(=O)[C@H](Cc1ccccc1)NC(=O)[C@H](CCCNC(=N)N)NC(=O)[C@H](Cc1ccc(O)cc1)NC(=O)[C@H](CC(=O)O)NC(=O)[C@H](CCCNC(=N)N)NC(=O)[C@H](CCCNC(=N)N)NC(=O)[C@H](C)NC(=O)[C@@H](NC(=O)[C@H](Cc1c[nH]c2ccccc12)NC(=O)[C@@H](N)CCCNC(=N)N)C(C)C)C(=O)NCC(=O)N[C@@H](Cc1ccccc1)C(=O)N[C@@H](CC(=O)O)C(=O)N[C@@H](Cc1ccc(O)cc1)C(=O)N[C@@H](Cc1c[nH]c2ccccc12)C(=O)N[C@H](C(=O)N[C@@H](Cc1c[nH]c2ccccc12)C(=O)N[C@@H](CCC(=O)O)C(=O)O)C(C)C [2ca] (H-RWVARRDYRFD[Dab](Acryloyl)GFDYWVWE-OH)

EC50 (PD1:PDL1 interaction; [2]): 3980 nM
Molecule: C=CC(=O)NC[C@H](NC(=O)[C@H](CC(=O)O)NC(=O)[C@H](Cc1ccccc1)NC(=O)[C@H](CCCNC(=N)N)NC(=O)[C@H](Cc1ccc(O)cc1)NC(=O)[C@H](CC(=O)O)NC(=O)[C@H](CCCNC(=N)N)NC(=O)[C@H](CCCNC(=N)N)NC(=O)[C@H](C)NC(=O)[C@@H](NC(=O)[C@H](Cc1c[nH]c2ccccc12)NC(=O)[C@@H](N)CCCNC(=N)N)C(C)C)C(=O)NCC(=O)N[C@@H](Cc1ccccc1)C(=O)N[C@@H](CC(=O)O)C(=O)N[C@@H](Cc1ccc(O)cc1)C(=O)N[C@@H](Cc1c[nH]c2ccccc12)C(=O)N[C@H](C(=O)N[C@@H](Cc1c[nH]c2ccccc12)C(=O)N[C@@H](CCC(=O)O)C(=O)O)C(C)C [2cb] (H-RWVARRDYRFD[Dap](Acryloyl)GFDYWVWE-OH)

EC50 (PD1:PDL1 interaction; [2]): 9870 nM
Molecule: C=C(C)C(=O)NCC[C@H](NC(=O)[C@H](CC(=O)O)NC(=O)[C@H](Cc1ccccc1)NC(=O)[C@H](CCCNC(=N)N)NC(=O)[C@H](Cc1ccc(O)cc1)NC(=O)[C@H](CC(=O)O)NC(=O)[C@H](CCCNC(=N)N)NC(=O)[C@H](CCCNC(=N)N)NC(=O)[C@H](C)NC(=O)[C@@H](NC(=O)[C@H](Cc1c[nH]c2ccccc12)NC(=O)[C@@H](N)CCCNC(=N)N)C(C)C)C(=O)NCC(=O)N[C@@H](Cc1ccccc1)C(=O)N[C@@H](CC(=O)O)C(=O)N[C@@H](Cc1ccc(O)cc1)C(=O)N[C@@H](Cc1c[nH]c2ccccc12)C(=O)N[C@H](C(=O)N[C@@H](Cc1c[nH]c2ccccc12)C(=O)N[C@@H](CCC(=O)O)C(=O)O)C(C)C [2cd] (H-RWVARRDYRFD[Dab](Methacryloyl)GFDYWVWE-OH)

EC50 (PD1:PDL1 interaction; [2]): 5650 nM
EC50 (PD1:PDL1 interaction; [PD1•PDL1] blocking EC50, Fig. 3B, cut-off bars of congeneric pairs (Phe/Trp vs Gly), n = 3): > 5000 nM
Molecule: CSCC[C@H](NC(=O)[C@H](CC(=O)O)NC(=O)CNC(=O)[C@H](CCCNC(=N)N)NC(=O)[C@H](Cc1ccc(O)cc1)NC(=O)[C@H](CC(=O)O)NC(=O)[C@H](CCCNC(=N)N)NC(=O)[C@H](CCCNC(=N)N)NC(=O)[C@H](C)NC(=O)[C@@H](NC(=O)[C@H](Cc1c[nH]c2ccccc12)NC(=O)[C@@H](N)CCCNC(=N)N)C(C)C)C(=O)NCC(=O)N[C@@H](Cc1ccccc1)C(=O)N[C@@H](CC(=O)O)C(=O)N[C@@H](Cc1ccc(O)cc1)C(=O)N[C@@H](Cc1c[nH]c2ccccc12)C(=O)N[C@@H](Cc1cnc[nH]1)C(=O)N[C@@H](Cc1c[nH]c2ccccc12)C(=O)N[C@@H](CCC(=O)O)C(=O)O [2d] (H-RWVARRDYRGDMGFDYWHWE-OH)

EC50 (PD1:PDL1 interaction; [2]): 586 nM
Molecule: CSCC[C@H](NC(=O)[C@H](CC(=O)O)NC(=O)[C@H](Cc1ccccc1)NC(=O)[C@H](CCCNC(=N)N)NC(=O)[C@H](Cc1ccc(O)cc1)NC(=O)[C@H](CC(=O)O)NC(=O)[C@H](CCCNC(=N)N)NC(=O)[C@H](CCCNC(=N)N)NC(=O)[C@H](C)NC(=O)[C@@H](NC(=O)[C@H](Cc1c[nH]c2ccccc12)NC(=O)[C@@H](N)CCCNC(=N)N)C(C)C)C(=O)NCC(=O)N[C@@H](Cc1ccccc1)C(=O)N[C@@H](CC(=O)O)C(=O)N[C@@H](Cc1ccc(O)cc1)C(=O)N[C@@H](Cc1c[nH]c2ccccc12)C(=O)N[C@@H](Cc1cnc[nH]1)C(=O)N[C@@H](Cc1c[nH]c2ccccc12)C(=O)N[C@@H](CCC(=O)O)C(=O)O [2e] (H-RWVARRDYRFDMGFDYWHWE-OH)

EC50 (PD1:PDL1 interaction; [2]): 78 nM
Molecule: CSCC[C@H](NC(=O)[C@H](CC(=O)O)NC(=O)[C@H](Cc1ccccc1)NC(=O)[C@H](CCCNC(=N)N)NC(=O)[C@H](Cc1ccc(O)cc1)NC(=O)[C@H](CC(=O)O)NC(=O)[C@H](CCCNC(=N)N)NC(=O)[C@H](CCCNC(=N)N)NC(=O)[C@H](CCCCN)NC(=O)[C@@H](NC(=O)[C@H](Cc1c[nH]c2ccccc12)NC(=O)[C@@H](N)CCCNC(=N)N)C(C)C)C(=O)NCC(=O)N[C@@H](Cc1ccccc1)C(=O)N[C@@H](CC(=O)O)C(=O)N[C@@H](Cc1ccc(O)cc1)C(=O)N[C@@H](Cc1c[nH]c2ccccc12)C(=O)N[C@H](C(=O)N[C@@H](Cc1c[nH]c2ccccc12)C(=O)N[C@@H](CCC(=O)O)C(=O)O)C(C)C [2g] (H-RWVKRRDYRFDMGFDYWVWE-OH)

EC50 (PD1:PDL1 interaction; [2]): 781 nM
Molecule: CSCC[C@H](NC(=O)[C@H](CC(=O)O)NC(=O)CNC(=O)[C@H](CCCNC(=N)N)NC(=O)[C@H](Cc1ccc(O)cc1)NC(=O)[C@H](CC(=O)O)NC(=O)[C@H](CCCNC(=N)N)NC(=O)[C@H](CCCNC(=N)N)NC(=O)[C@@H](NC(=O)[C@@H](NC(=O)[C@H](Cc1c[nH]c2ccccc12)NC(=O)[C@@H](N)CCCNC(=N)N)C(C)C)C(C)C)C(=O)NCC(=O)N[C@@H](Cc1ccccc1)C(=O)N[C@@H](CC(=O)O)C(=O)N[C@@H](Cc1ccc(O)cc1)C(=O)N[C@@H](Cc1c[nH]c2ccccc12)C(=O)N[C@H](C(=O)N[C@@H](Cc1c[nH]c2ccccc12)C(=O)N[C@@H](CCC(=O)O)C(=O)O)C(C)C [2h] (H-RWVVRRDYRGDMGFDYWVWE-OH)

EC50 (PD1:PDL1 interaction; [2]): 70 nM
Molecule: CSCC[C@H](NC(=O)[C@H](CC(=O)O)NC(=O)[C@H](Cc1ccccc1)NC(=O)[C@H](CCCNC(=N)N)NC(=O)[C@H](Cc1ccc(O)cc1)NC(=O)[C@H](CC(=O)O)NC(=O)[C@H](CCCNC(=N)N)NC(=O)[C@H](CCCNC(=N)N)NC(=O)[C@@H](NC(=O)[C@@H](NC(=O)[C@H](Cc1c[nH]c2ccccc12)NC(=O)[C@@H](N)CCCNC(=N)N)C(C)C)C(C)C)C(=O)NCC(=O)N[C@@H](Cc1ccccc1)C(=O)N[C@@H](CC(=O)O)C(=O)N[C@@H](Cc1ccc(O)cc1)C(=O)N[C@@H](Cc1c[nH]c2ccccc12)C(=O)N[C@H](C(=O)N[C@@H](Cc1c[nH]c2ccccc12)C(=O)N[C@@H](CCC(=O)O)C(=O)O)C(C)C [2i] (H-RWVVRRDYRFDMGFDYWVWE-OH)

EC50 (PD1:PDL1 interaction; [2]): 170 nM
Molecule: CSCC[C@H](NC(=O)[C@H](CC(=O)O)NC(=O)[C@H](Cc1ccccc1)NC(=O)[C@H](CCCNC(=N)N)NC(=O)[C@H](Cc1ccc(O)cc1)NC(=O)[C@H](CC(=O)O)NC(=O)[C@H](CCCNC(=N)N)NC(=O)[C@H](CCCNC(=N)N)NC(=O)[C@H](C)NC(=O)[C@@H](NC(=O)[C@H](Cc1c[nH]c2ccccc12)NC(=O)[C@@H](N)CCCNC(=N)N)C(C)C)C(=O)NCC(=O)N[C@@H](Cc1ccccc1)C(=O)N[C@@H](CC(N)=O)C(=O)N[C@@H](Cc1ccc(O)cc1)C(=O)N[C@@H](Cc1c[nH]c2ccccc12)C(=O)N[C@H](C(=O)N[C@@H](Cc1c[nH]c2ccccc12)C(=O)N[C@@H](CCC(=O)O)C(=O)O)C(C)C [2k] (H-RWVARRDYRFDMGFNYWVWE-OH)

fold by CD signature (in words) ([1]; no hairpin exciton, no fit possible): No fold
Molecule: RWCAR-RDYRFDMGFD-YWGWE [Native, peptide 'Native', no fold by CD]

ΔGF0 ([1]; CD-melt at 228±2 nm, individual two-state Gibbs-Helmholtz fit (Origin 9.0), 0-95 °C, phosphate buffer 15 mM pH 6.5 ± MeOH): -0.90 ± 0.006 kcal/mol
Tm ([1]; Table S5, individual fit, 228±2 nm): 44.8 oC
Hairpin %-fold 291K ([1]; Table S5, individual fit, 291 K): 87 ± 1%
Hairpin %-fold 310K ([1]; Table S5, individual fit, 310 K): 66 ± 1%
-TΔSF0 ([1]; as E16): 9.87 ± 0.1 kcal/mol
ΔCpF0 ([1]; as E16): -372 ± 10 cal.deg-1.mol-1
ΔHF0 ([1]; as E16): -10.8 ± 0.1 kcal/mol
melting temperature (TM) upshift vs regular hairpin 1a ([1]; calculated from CD-melts): about 10 °C
DHm, fitted value from OriginPro [1, 3]: -18185.4 cal/mol
Tm, fitted value from OriginPro [1, 3]: 317.92 K
Molecule: RWVA-RGGGGKKGGFD-YWVWE [2a, bulged (B) β-hairpin model scaffold]
